ChEMBL document CHEMBL5108002, “Design, synthesis, and biological evaluation of novel 7-substituted 10,11-methylenedioxy-camptothecin derivatives against drug-resistant small-cell lung cancer in vitro and in vivo” (Eur J Med Chem, 2022)
Active and inactive are the calls of the source. The calls are words filed in the database; no cut-off is given here.

How the values were obtained:
H69AR [1] = assay: Induction of apoptosis in human NCI-H69AR cells assessed as late apoptotic cells at 100 nM incubated for 24 hrs by AnnexinV-FITC/PI staining based flow cytometry analysis (reference value: 2.99 %); format: functional
H69AR [2] = assay: Induction of apoptosis in human NCI-H69AR cells assessed as reduction in Bcl-2 mRNA expression at 0.1 to 100 nM incubated for 24 hrs by RT-PCR analysis; format: functional, cell-based; conditions: dose 0.1-100 nM
H69AR [3] = assay: Induction of apoptosis in human NCI-H69AR cells assessed as inhibition of Mcl-1 protein expression at 0.1 to 100 nM incubated for 24 hrs by Western blot analysis; format: functional, cell-based; conditions: dose 0.1-100 nM
H69AR [4] = assay: Induction of apoptosis in human NCI-H69AR cells assessed as dead cells at 1 nM incubated for 24 hrs by AnnexinV-FITC/PI staining based flow cytometry analysis (reference value: 1.92 %); format: functional
NCI-H69 [5] = assay: Induction of apoptosis in human NCI-H69 cells assessed as reduction in XIAP mRNA expression at 0.1 to 100 nM incubated for 24 hrs by RT-PCR analysis; format: functional, cell-based; conditions: dose 0.1-100 nM
NCI-H446 [6] = assay: Antitumor activity against human NCI-H446 cells xenografted in BALB/c nude mouse assessed as tumor growth inhibition at 0.75 mg/kg, IG administered once a week for 28 days by electronic caliper method relative to control; format: functional; conditions: NCI-H446, po, 672 h, time 28 day, read-out: TGI
NCI-H446 [7] = assay: Antitumor activity against etoposide/cisplatin combination-resistant human NCI-H446 cells xenografted in BALB/c nude mouse assessed as average tumor mass at 3 mg/kg, IG administered once a week and measured 3 times a week; format: functional
H69AR [8] = assay: Induction of apoptosis in human NCI-H69AR cells assessed as dead cells at 10 nM incubated for 24 hrs by AnnexinV-FITC/PI staining based flow cytometry analysis (reference value: 1.92 %); format: functional
NCI-H69 [9] = assay: Induction of apoptosis in human NCI-H69 cells assessed as increase in cleaved-caspase 3 protein expression at 0.1 to 100 nM measured after 24 hrs by Western blot analysis; format: functional, cell-based; conditions: dose 0.1-100 nM
NCI-H446 [10] = assay: Induction of apoptosis in human NCI-H446 cells assessed as inhibition of Bcl-1 protein expression at 0.1 to 100 nM incubated for 24 hrs by Western blot analysis; format: functional, cell-based; conditions: dose 0.1-100 nM
H69AR [11] = assay: Induction of apoptosis in human NCI-H69AR cells assessed as early apoptotic cells at 10 nM incubated for 24 hrs by AnnexinV-FITC/PI staining based flow cytometry analysis (reference value: 0.35 %); format: functional
Mus musculus [12] = assay: Downregulation of Mcl-1 protein expression in tumor of BALB/c mouse xenografted with human NCI-H446 cells at 0.75 mg/kg, IG administered intragastrically once a week for 28 days by western blot analysis; format: functional, organism-based; conditions: time 28.0 day
[13] = Resistance index, ratio of IC50 for antiproliferative activity against Irinotecan-resistant human NCI-H446 cells to IC50 for antiproliferative activity against human NCI-H446 cells; format: functional
NCI-H446 [14] = assay: Induction of apoptosis in human NCI-H446 cells assessed as dead cells at 0.1 nM incubated for 24 hrs by AnnexinV-FITC/PI staining based flow cytometry analysis (reference value: 0.22 %); format: functional
NCI-H446 [15] = assay: Antitumor activity against etoposide/cisplatin combination-resistant human NCI-H446 cells xenografted in BALB/c nude mouse assessed as tumor growth inhibition at 3 mg/kg, IG administered once a week and measured 3 times a week relative to control; format: functional; conditions: NCI-H446, po, read-out: TGI
H69AR [16] = assay: Induction of apoptosis in human NCI-H69AR cells assessed as dead cells at 100 nM incubated for 24 hrs by AnnexinV-FITC/PI staining based flow cytometry analysis (reference value: 1.92 %); format: functional
NCI-H446 [17] = assay: Induction of apoptosis in human NCI-H446 cells assessed as reduction in XIAP mRNA level at 0.1 to 100 nM incubated for 24 hrs by RT-PCR analysis; format: functional, cell-based; conditions: dose 0.1-100 nM
H69AR [18] = assay: Induction of apoptosis in human NCI-H69AR cells assessed as increase in cleaved-PARP protein expression at 0.1 to 100 nM measured after 24 hrs by Western blot analysis; format: functional, cell-based; conditions: dose 0.1-100 nM
H69AR [19] = assay: Induction of apoptosis in human NCI-H69AR cells assessed as reduction in survivin mRNA expression at 0.1 to 100 nM incubated for 24 hrs by RT-PCR analysis; format: functional, cell-based; conditions: dose 0.1-100 nM
NCI-H446 [20] = assay: Induction of apoptosis in human NCI-H446 cells assessed as increase in cleaved-caspase 9 protein expression at 0.1 to 100 nM measured after 24 to 48 hrs by Western blot analysis; format: functional, cell-based; conditions: dose 0.1-100 nM, time 24-48 hrs
H69AR [21] = assay: Induction of apoptosis in human NCI-H69AR cells assessed as reduction in Mcl-1 mRNA expression at 0.1 to 100 nM incubated for 24 hrs by RT-PCR analysis; format: functional, cell-based; conditions: dose 0.1-100 nM
NCI-H446 [22] = assay: Induction of apoptosis in human NCI-H446 cells assessed as increase in cleaved-PARP protein expression at 0.1 to 100 nM measured after 24 to 48 hrs by Western blot analysis; format: functional, cell-based; conditions: dose 0.1-100 nM, time 24-48 hrs
NCI-H446 [23] = assay: Induction of apoptosis in human NCI-H446 cells assessed as late apoptotic cells at 1 nM incubated for 24 hrs by AnnexinV-FITC/PI staining based flow cytometry analysis (reference value: 0.37 %); format: functional
NCI-H446 [24] = assay: Antitumor activity against human NCI-H446 cells xenografted in BALB/c nude mouse assessed as tumor growth inhibition at 3 mg/kg, IG administered once a week for 28 days by electronic caliper method relative to control; format: functional; conditions: NCI-H446, po, 672 h, time 28 day, read-out: TGI
NCI-H446 [25] = assay: Induction of apoptosis in human NCI-H446 cells assessed as inhibition of Bcl-2 protein expression incubated for 24 hrs by Western blot analysis; format: functional, cell-based; conditions: dose 0.1-100 nM
NCI-H446 [26] = assay: Induction of apoptosis in human NCI-H446 cells assessed as early apoptotic cells at 1 nM incubated for 24 hrs by AnnexinV-FITC/PI staining based flow cytometry analysis (reference value: 3.1 %); format: functional
NCI-H69 [27] = assay: Induction of apoptosis in human NCI-H69 cells assessed as reduction in survivin mRNA expression at 0.1 to 100 nM incubated for 24 hrs by RT-PCR analysis; format: functional, cell-based; conditions: dose 0.1-100 nM
NCI-H69 [28] = assay: Induction of apoptosis in human NCI-H69 cells assessed as inhibition of Bcl-2 protein expression at 0.1 to 100 nM incubated for 24 hrs by Western blot analysis; format: functional, cell-based; conditions: dose 0.1-100 nM
[29] = Toxicity in BALB/c nude mouse xenografted with human NCI-H446 cells assessed as reduction in body weight at high dose administered intragastrically once a week for 28 days and measured three times a week; conditions: in vivo, po, 672 h, route ig, time 28 day
NCI-H446 [30] = assay: Induction of apoptosis in human NCI-H446 cells assessed as early apoptotic cells at 0.1 nM incubated for 24 hrs by AnnexinV-FITC/PI staining based flow cytometry analysis (reference value: 3.1 %); format: functional
Mus musculus [31] = assay: Downregulation of Bcl-2 protein expression in tumor of BALB/c mouse xenografted with human NCI-H446 cells at 0.75 mg/kg, IG administered intragastrically once a week for 28 days by western blot analysis; format: functional, organism-based; conditions: time 28.0 day

For CC[C@@]1(O)C(=O)OCc2c1cc1n(c2=O)Cc2c-1nc1cc3c(cc1c2-c1ccoc1)OCO3, the Activity (H69AR [1]) was 32.38%, the Activity (H69AR [2]) was “Active” and the inhibition (H69AR [3]) was “Active”. For the same compound, the Activity (H69AR [4]) was 2.61%, the Activity (NCI-H69 [5]) was “Active” and the inhibition in vivo at 0.75 mg/kg (NCI-H446 [6]) was 40.4%. The Activity (NCI-H446 [7]) was 0.23 g, the Activity (H69AR [8]) was 1.82% and the Activity (NCI-H69 [9]) was “Active”. The inhibition (NCI-H446 [10]) was “Active”, the Activity (H69AR [11]) was 0.57% and the Activity (Mus musculus [12]) was “Active”. The “Ratio IC50” value [13] was 0.64, the Activity (NCI-H446 [14]) was 0.91% and the inhibition in vivo at 3 mg/kg (NCI-H446 [15]) was 84.5%. The Activity (H69AR [16]) was 1.47%, the Activity (NCI-H446 [17]) was “Active” and the Activity (H69AR [18]) was “Active”. For the same compound, the Activity (H69AR [19]) was “Active”, the Activity (NCI-H446 [20]) was “Active” and the Activity (H69AR [21]) was “Active”. The Activity (NCI-H446 [22]) was “Active”, the Activity (NCI-H446 [23]) was 9.6% and the inhibition in vivo at 3 mg/kg (NCI-H446 [24]) was 95.5%. The inhibition (NCI-H446 [25]) was “Active”, the Activity (NCI-H446 [26]) was 13.08% and the Activity (NCI-H69 [27]) was “Active”. For the same compound, the inhibition (NCI-H69 [28]) was “Active”, the Activity [29] was “Toxic” and the Activity (NCI-H446 [30]) was 7%. The Activity (Mus musculus [31]) was “Active”.
